PMC11241395 (International Journal of Molecular Sciences, 2024)
pIC50: −log10 of the molar value. “Also recorded” adds a separate entry of the source. Where two headings read alike, the source gives them in different places.

What was measured:
[1] = system: SKBR-3 (human breast adenocarcinoma); assay: MTT cytotoxicity assay, SKBR-3; assay type: cell-based; settings: SK-BR-3, read-out: IC50 (SD), SKBR-3
Description: (§1) This activity was evaluated in vitro using the standard MTT method (enzymatic reduction of 3-[4,5-dimethylthiazole-2-yl]-2,5-diphenyltetrazolium bromide, MTT, to MTT-formazan) based on a viability assay.
(§2) Cytotoxic activity: Human cancer cells SKBR-3 (human breast cancer cell line) and SKOV-3 (ovarian cancer cell line) were cultured in McCoy’s Modified Medium. Human cancer cells PC-3 (human prostate cancer cell line) were cultured in an F-12K medium. The Human Dermal Fibroblast (HDF) cell line was cultured in Fibroblast Basal Medium. The U-87 cell line was cultured in EMEM medium. Each medium was supplemented with 10% foetal bovine serum, 1% L- glutamine, and 1% penicillin/streptomycin solution. The cell lines were kept in an incubator at 37 °C. All the cell lines and mediums were obtained from the American Type Culture Collection (ATCC) supplied by LGC-Standards (Lomianki, Poland).
(§3) The MTT assay was conducted as described earlier.

[2] = system: SKOV-3 (human ovarian cystadenocarcinoma); assay: MTT cytotoxicity assay, SKOV-3; assay type: cell-based; settings: SK-OV-3, read-out: IC50 (SD), SKOV-3
Description: as §1, §2, §3

[3] = system: U-87 (human glioblastoma); assay: MTT cytotoxicity assay, U-87; assay type: cell-based; settings: read-out: IC50 (SD), U-87
Description: as §1, §2, §3

[4] = system: HDF (regular fibroblast cell line); assay: MTT cytotoxicity assay, normal HDF cells; assay type: cell-based; settings: Homo sapiens, read-out: IC50 (SD), HDF
Description: as §1, §2, §3

[5] = system: SKBR-3, SKOV-3, PC-3, and U-87 cancer cell lines; assay: MTT cytotoxicity assay, four cancer cell lines taken together; assay type: cell-based, human; settings: span over the four cancer cell lines
Description: as §1, §2, §3

[6] = system: PC-3 (human prostate carcinoma); assay: MTT cytotoxicity assay, PC-3; assay type: cell-based; settings: read-out: IC50 (SD), PC-3
Description: as §1, §2, §3

[7] = DPPH radical-scavenging assay; settings: sample 1.0 mg/mL in DMSO, 30 min, 517 nm; compared with OA (1)
Description: The results are presented as % inhibition of the DPPH radical and Trolox equivalent, calculated from the standard curve (Figure 4). Activity assays were performed in eight repetitions.
The 2,2-diphenyl-1-picrylhydrazyl (DPPH) assay was performed according to Garbiec et al. with modifications. Briefly, 25 μL of the sample at a concentration of 1.0 mg/mL dissolved in dimethyl sulfoxide (DMSO) was mixed with 175 μL of DPPH solution (3.9 mg in 50 mL of methanol). The reaction mixture was shaken and incubated in the dark at room temperature for 30 min. The control sample contained 25 μL of DMSO and 175 μL of DPPH solution. Absorbance was measured at 517 nm. The inhibition of the DPPH radical by the sample was calculated according to the following formula: DPPH-scavenging activity (%) = ((AC − AS)/AC) × 100% where AC is the absorbance of the control and AS is the absorbance of the sample.
The results were presented as % inhibition of the DPPH radical and Trolox equivalent, calculated from the standard curve. Activity assays were performed in 8 repetitions.

Row | melting point | SMILES | pIC50 [1] | pIC50 [2] | pIC50 [3] | pIC50 ([4]; HDF) | pIC50 ([5]; Homo sapiens) | pIC50 [6] | pIC50 [4] | DPPH radical inhibition expressed as Trolox equivalent [7] | pIC50 [5]
1 | 183 to 185 °C | CC1(C)CC[C@]2(C(=O)OCOC(=O)[C@]34CCC(C)(C)CC3C3=CCC5[C@@]6(C)CC[C@H](O)C(C)(C)C6CC[C@@]5(C)[C@]3(C)CC4)CC[C@]3(C)C(=CCC4[C@@]5(C)CC[C@H](O)C(C)(C)C5CC[C@]43C)C2C1 (stereo partly shown) (hydrate or solvate) [Compound 2a] | – | – | – | – | – | – | – | – | –
2 | – | CC1(C)CC[C@]2(C(=O)O)CC[C@]3(C)C(=CC[C@@H]4[C@@]5(C)CC[C@H](O)C(C)(C)[C@@H]5CC[C@]43C)[C@@H]2C1 [1 (OA), Oleanolic acid, reference compound] | 4.71 | 4.73 | 4.74 | ~4.60 | 4.72 to 4.74 | – | – | – | –
3 | – | CC1(C)CC[C@]2(C(=O)OCOC(=O)[C@]34CCC(C)(C)CC3C3=CCC5[C@@]6(C)CC[C@H](O)C(C)(C)C6CC[C@@]5(C)[C@]3(C)CC4)CC[C@]3(C)C(=CCC4[C@@]5(C)CC[C@H](O)C(C)(C)C5CC[C@]43C)C2C1 (stereo partly shown) [Compound 2a] | 5.40 | 5.41 | 5.48 | – | 5.34 to 5.51 | 5.47 | 5.18 | by far the highest activity; also recorded: significantly higher | –
4 | – | CC1(C)CC[C@]2(C(=O)OCCOC(=O)[C@]34CCC(C)(C)CC3C3=CCC5[C@@]6(C)CC[C@H](O)C(C)(C)C6CC[C@@]5(C)[C@]3(C)CC4)CC[C@]3(C)C(=CCC4[C@@]5(C)CC[C@H](O)C(C)(C)C5CC[C@]43C)C2C1 (stereo partly shown) [Compound 2b] | 5.18 | 5.19 | 5.18 | – | 5.09 to 5.32 | 5.19 | 4.95 | highest level of antioxidant activity; also recorded: significantly higher | –
5 | – | CC1(C)CC[C@]2(C(=O)OCCCOC(=O)[C@]34CCC(C)(C)CC3C3=CCC5[C@@]6(C)CC[C@H](O)C(C)(C)C6CC[C@@]5(C)[C@]3(C)CC4)CC[C@]3(C)C(=CCC4[C@@]5(C)CC[C@H](O)C(C)(C)C5CC[C@]43C)C2C1 (stereo partly shown) [Compound 2c] | 5.12 | 5.09 | 5.13 | – | 5.09 to 5.32 | 5.13 | 4.72 | – | –
6 | – | CC1(C)CC[C@]2(C(=O)OCCCCOC(=O)[C@]34CCC(C)(C)CC3C3=CCC5[C@@]6(C)CC[C@H](O)C(C)(C)C6CC[C@@]5(C)[C@]3(C)CC4)CC[C@]3(C)C(=CCC4[C@@]5(C)CC[C@H](O)C(C)(C)C5CC[C@]43C)C2C1 (stereo partly shown) [Compound 2d] | 5.95 | 5.81 | 5.92 | – | – | 5.79 | 5.53 | – | –
7 | – | CC1(C)CC[C@]2(C(=O)OC/C=C\COC(=O)[C@]34CCC(C)(C)CC3C3=CCC5[C@@]6(C)CC[C@H](O)C(C)(C)C6CC[C@@]5(C)[C@]3(C)CC4)CC[C@]3(C)C(=CCC4[C@@]5(C)CC[C@H](O)C(C)(C)C5CC[C@]43C)C2C1 (stereo partly shown) [Compound 2e] | 5.58 | 5.68 | 5.56 | – | – | 5.64 | 5.57 | – | –
8 | – | CC1(C)CC[C@]2(C(=O)OC/C=C/COC(=O)[C@]34CCC(C)(C)CC3C3=CCC5[C@@]6(C)CC[C@H](O)C(C)(C)C6CC[C@@]5(C)[C@]3(C)CC4)CC[C@]3(C)C(=CCC4[C@@]5(C)CC[C@H](O)C(C)(C)C5CC[C@]43C)C2C1 (stereo partly shown) [Compound 2f] | 5.29 | 5.32 | 5.31 | – | 5.09 to 5.32 | 5.29 | 5.56 | highest level of antioxidant activity; also recorded: significantly higher | –
9 | – | CC1(C)CC[C@]2(C(=O)OCCCCCOC(=O)[C@]34CCC(C)(C)CC3C3=CCC5[C@@]6(C)CC[C@H](O)C(C)(C)C6CC[C@@]5(C)[C@]3(C)CC4)CC[C@]3(C)C(=CCC4[C@@]5(C)CC[C@H](O)C(C)(C)C5CC[C@]43C)C2C1 (stereo partly shown) [Compound 2g] | 5.28 | 5.29 | 5.27 | – | 5.09 to 5.32 | 5.24 | 5.47 | – | –
10 | – | CC1(C)CC[C@]2(C(=O)OCCCCCCOC(=O)[C@]34CCC(C)(C)CC3C3=CCC5[C@@]6(C)CC[C@H](O)C(C)(C)C6CC[C@@]5(C)[C@]3(C)CC4)CC[C@]3(C)C(=CCC4[C@@]5(C)CC[C@H](O)C(C)(C)C5CC[C@]43C)C2C1 (stereo partly shown) [Compound 2h] | 5.22 | 5.27 | 5.23 | – | – | 5.27 | 4.76 | – | –
11 | – | CC1(C)CC[C@]2(C(=O)OCCCCCCCOC(=O)[C@]34CCC(C)(C)CC3C3=CCC5[C@@]6(C)CC[C@H](O)C(C)(C)C6CC[C@@]5(C)[C@]3(C)CC4)CC[C@]3(C)C(=CCC4[C@@]5(C)CC[C@H](O)C(C)(C)C5CC[C@]43C)C2C1 (stereo partly shown) [Compound 2i] | 5.46 | 5.43 | 5.51 | – | 5.34 to 5.51 | 5.50 | 5.27 | – | –
12 | – | CC1(C)CC[C@]2(C(=O)OCCCCCCCCOC(=O)[C@]34CCC(C)(C)CC3C3=CCC5[C@@]6(C)CC[C@H](O)C(C)(C)C6CC[C@@]5(C)[C@]3(C)CC4)CC[C@]3(C)C(=CCC4[C@@]5(C)CC[C@H](O)C(C)(C)C5CC[C@]43C)C2C1 (stereo partly shown) [Compound 2j] | 5.00 | 4.99 | 4.97 | – | 4.97 to 5.01 | 5.01 | 4.80 | – | –
13 | – | CC1(C)CC[C@]2(C(=O)OCCCCCCCCCOC(=O)[C@]34CCC(C)(C)CC3C3=CCC5[C@@]6(C)CC[C@H](O)C(C)(C)C6CC[C@@]5(C)[C@]3(C)CC4)CC[C@]3(C)C(=CCC4[C@@]5(C)CC[C@H](O)C(C)(C)C5CC[C@]43C)C2C1 (stereo partly shown) [Compound 2k] | 5.16 | 5.16 | 5.13 | – | 5.09 to 5.32 | 5.16 | 4.77 | – | –
14 | – | CC1(C)CC[C@]2(C(=O)OCCCCCCCCCCOC(=O)[C@]34CCC(C)(C)CC3C3=CCC5[C@@]6(C)CC[C@H](O)C(C)(C)C6CC[C@@]5(C)[C@]3(C)CC4)CC[C@]3(C)C(=CCC4[C@@]5(C)CC[C@H](O)C(C)(C)C5CC[C@]43C)C2C1 (stereo partly shown) [Compound 2l] | 4.73 | 4.74 | 4.73 | – | 4.74 | 4.74 | 4.44 | – | 4.73
15 | – | CC1(C)CC[C@]2(C(=O)OCCCCCCCCCCCOC(=O)[C@]34CCC(C)(C)CC3C3=CCC5[C@@]6(C)CC[C@H](O)C(C)(C)C6CC[C@@]5(C)[C@]3(C)CC4)CC[C@]3(C)C(=CCC4[C@@]5(C)CC[C@H](O)C(C)(C)C5CC[C@]43C)C2C1 (stereo partly shown) [Compound 2m] | 5.41 | 5.34 | 5.37 | – | 5.34 to 5.51 | 5.41 | 5.13 | – | –
16 | – | CC1(C)CC[C@]2(C(=O)OCCCCCCCCCCCCOC(=O)[C@]34CCC(C)(C)CC3C3=CCC5[C@@]6(C)CC[C@H](O)C(C)(C)C6CC[C@@]5(C)[C@]3(C)CC4)CC[C@]3(C)C(=CCC4[C@@]5(C)CC[C@H](O)C(C)(C)C5CC[C@]43C)C2C1 (stereo partly shown) [Compound 2n] | 5.17 | 5.13 | 5.19 | – | 5.09 to 5.32 | 5.16 | 5.14 | – | –
